Data from patent US6531493B1, “3-cyclopropylmethoxy-4-difluoromethoxy-N-(3,5-dichloropyrid-4-yl)benzamide in the treatment of multiple sclerosis” (Altana Pharma AG, priority 1999, dated 2003).

Test system: Experimental autoimmune encephalomyelitis (EAE) in female SJL mice
Test: Experimental autoimmune encephalomyelitis (EAE) induced with PLP139-151, daily clinical scoring
Format: in vivo
Conditions: for Number of sick animals: 2 × 5 mg/kg p.o., 2× daily up to day 21, n=10
[1] = oral administration, compared with untreated controls

Structure (SMILES): O=C(Nc1c(Cl)cncc1Cl)c1ccc(OC(F)F)c(OCC2CC2)c1 [substance A, 3-cyclopropylmethoxy-4-difluoromethoxy-N-(3,5-dichloropyrid-4-yl)benzamide]
- Number of sick animals (day 2 after EAE induction): 0
- Number of sick animals (day 4 after EAE induction): 0
- Number of sick animals (day 6 after EAE induction): 0
- Number of sick animals (day 8 after EAE induction): 0
- Number of sick animals (day 10 after EAE induction): 0
- Number of sick animals (day 12 after EAE induction): 0
- Number of sick animals (day 14 after EAE induction): 1
- Number of sick animals (day 16 after EAE induction): 3
- Number of sick animals (day 18 after EAE induction): 3
- Number of sick animals (day 20 after EAE induction): 3
- Number of sick animals (day 22 after EAE induction): 3
- Number of sick animals (day 24 after EAE induction): 4
- Number of sick animals (day 26 after EAE induction): 3
- Number of experimental animals with no MS-analogous symptomatology at all (of the 10 treated animals, monitoring period up to the 26th day after EAE induction): 6
- Effect on onset of the MS-analogous symptomatology [1]: delay in the onset of the MS-analogous symptomatology
- Effect on the number of animals which suffer from the experimental encephalitis [1]: marked decrease in the number of animals
